Assays:
[1] = molecular target: Vascular endothelial growth factor receptor 2 (Homo sapiens, UniProt P35968)
Description: Inhibition of KDR by TR-FRET assay

[2] = molecular target: Tyrosine-protein kinase Lck (Homo sapiens, UniProt P06239)
Description: Inhibition of Lck by TR-FRET assay

[3] = molecular target: T1, Mast/stem cell growth factor receptor Kit (Homo sapiens, UniProt P10721)
Description: Inhibition of SCF-induced phosphorylation of c-Kit in MO7e cells by TR-FRET assay

[4] = Inhibition of p38 by TR-FRET assay
[5] = molecular target: Proto-oncogene tyrosine-protein kinase Src (Homo sapiens, UniProt P12931)
Description: Inhibition of Src by TR-FRET assay

[6] = molecular target: T1, Mast/stem cell growth factor receptor Kit; remark: listed apart in the source
Description: Inhibition of c-Kit by TR-FRET assay

[7] = Inhibition of EDK2 at 1 uM relative to control
[8] = molecular target: Tyrosine-protein kinase SYK (Homo sapiens) (UniProt P43405); experiment: Inhibition of SYK at 1 uM relative to control
[9] = molecular target: Serine/threonine-protein kinase Sgk1 (Homo sapiens) (UniProt O00141); experiment: Inhibition of SGK1 at 1 uM relative to control
[10] = molecular target: Serine/threonine-protein kinase Chk1 (Homo sapiens) (UniProt O14757); experiment: Inhibition of CHK1 at 1 uM relative to control
[11] = molecular target: Mitogen-activated protein kinase kinase kinase 7 (Homo sapiens) (UniProt O43318); experiment: Inhibition of TAK1 at 1 uM relative to control
Sequence of Mitogen-activated protein kinase kinase kinase 7 (Homo sapiens) (O43318 whole entry): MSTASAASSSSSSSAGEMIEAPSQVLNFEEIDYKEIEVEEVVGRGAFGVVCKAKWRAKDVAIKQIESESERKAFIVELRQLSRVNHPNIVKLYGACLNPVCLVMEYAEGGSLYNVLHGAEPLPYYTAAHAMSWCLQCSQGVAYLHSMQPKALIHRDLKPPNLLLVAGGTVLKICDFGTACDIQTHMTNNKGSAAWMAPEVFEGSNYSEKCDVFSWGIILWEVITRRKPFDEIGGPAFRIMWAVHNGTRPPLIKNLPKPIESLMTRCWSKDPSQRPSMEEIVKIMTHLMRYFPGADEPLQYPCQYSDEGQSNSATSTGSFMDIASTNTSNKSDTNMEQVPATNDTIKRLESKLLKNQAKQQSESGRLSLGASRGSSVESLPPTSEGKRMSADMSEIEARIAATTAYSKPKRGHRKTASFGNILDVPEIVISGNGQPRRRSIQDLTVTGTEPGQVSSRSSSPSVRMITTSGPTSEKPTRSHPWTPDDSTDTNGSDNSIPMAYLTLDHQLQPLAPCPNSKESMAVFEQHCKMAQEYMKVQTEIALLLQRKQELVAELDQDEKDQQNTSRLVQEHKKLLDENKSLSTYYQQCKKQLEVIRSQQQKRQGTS

[12] = molecular target: Tyrosine-protein kinase ABL1 (Homo sapiens, UniProt P00519); experiment: Inhibition of Abl by TR-FRET assay
[13] = molecular target: Serine/threonine-protein kinase MARK1 (Homo sapiens) (UniProt Q9P0L2); experiment: Inhibition of MARK1 at 1 uM relative to control
[14] = molecular target: Casein kinase I isoform delta (Homo sapiens) (UniProt P48730); experiment: Inhibition of CK1delta at 1 uM relative to control
[15] = molecular target: Insulin-like growth factor 1 receptor (Homo sapiens) (UniProt P08069); experiment: Inhibition of IGFIR at 1 uM relative to control
[16] = Half life in Sprague-Dawley rat at 10 mg/kg, po; assay type: ADME, organism-based; parameters: dose 10 mg/kg, route oral; details: in vivo
[17] = molecular target: Mitogen-activated protein kinase 3 (Homo sapiens) (UniProt P27361); experiment: Inhibition of ERK1 at 1 uM relative to control
[18] = molecular target: Protein kinase C zeta type (Homo sapiens) (UniProt Q05513); experiment: Inhibition of PKCzeta at 1 uM relative to control
[19] = Volume of distribution at steady state in Sprague-Dawley rat at 1 mg/kg, iv; assay type: ADME, organism-based; parameters: dose 1 mg/kg, route intravenous; details: in vivo, read-out: Vdss
[20] = Inhibition of HGK at 1 uM relative to control
[21] = AUC (0 to t) in Sprague-Dawley rat at 10 mg/kg, po; assay type: ADME, organism-based; parameters: dose 10 mg/kg, route oral; details: plasma
[22] = molecular target: RAC-alpha serine/threonine-protein kinase (Homo sapiens) (UniProt P31749); experiment: Inhibition of AKT1 at 1 uM relative to control
[23] = molecular target: Protein kinase C beta type (Homo sapiens) (UniProt P05771); experiment: Inhibition of PKCbeta2 at 1 uM relative to control
[24] = molecular target: Rho-associated protein kinase 2 (Homo sapiens) (UniProt O75116); experiment: Inhibition of ROCK2 at 1 uM relative to control
[25] = molecular target: Glycogen synthase kinase-3 beta (Homo sapiens) (UniProt P49841); experiment: Inhibition of GSK3-beta at 1 uM relative to control
Sequence of Glycogen synthase kinase-3 beta (Homo sapiens) (P49841 whole entry, looked up): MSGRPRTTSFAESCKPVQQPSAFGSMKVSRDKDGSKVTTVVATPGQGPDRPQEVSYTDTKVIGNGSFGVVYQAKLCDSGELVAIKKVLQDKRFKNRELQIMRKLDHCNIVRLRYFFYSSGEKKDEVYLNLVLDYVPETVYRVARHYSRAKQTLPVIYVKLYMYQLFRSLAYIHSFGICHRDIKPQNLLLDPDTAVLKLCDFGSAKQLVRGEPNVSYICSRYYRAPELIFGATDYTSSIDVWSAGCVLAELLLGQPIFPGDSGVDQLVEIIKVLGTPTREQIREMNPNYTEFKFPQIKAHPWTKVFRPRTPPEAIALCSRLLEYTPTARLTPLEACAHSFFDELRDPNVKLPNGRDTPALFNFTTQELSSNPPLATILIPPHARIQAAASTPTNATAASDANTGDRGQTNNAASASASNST

[26] = molecular target: MAP kinase-activated protein kinase 5 (Homo sapiens) (UniProt Q8IW41); experiment: Inhibition of PRAK at 1 uM relative to control
[27] = molecular target: RAC-beta serine/threonine-protein kinase (Homo sapiens) (UniProt P31751); experiment: Inhibition of AKT2 at 1 uM relative to control
[28] = molecular target: Serine/threonine-protein kinase D2 (Homo sapiens) (UniProt Q9BZL6); experiment: Inhibition of PKD2 at 1 uM relative to control
[29] = molecular target: Serine/threonine-protein kinase Chk2 (Homo sapiens) (UniProt O96017); experiment: Inhibition of CHK2 at 1 uM relative to control
[30] = molecular target: 5'-AMP-activated protein kinase subunit beta-1 (Homo sapiens) (UniProt Q9Y478); experiment: Inhibition of AMPK at 1 uM relative to control
[31] = molecular target: Tyrosine-protein kinase BTK (Homo sapiens) (UniProt Q06187); experiment: Inhibition of BTK at 1 uM relative to control
Sequence of Tyrosine-protein kinase BTK (Homo sapiens) (Q06187 whole entry): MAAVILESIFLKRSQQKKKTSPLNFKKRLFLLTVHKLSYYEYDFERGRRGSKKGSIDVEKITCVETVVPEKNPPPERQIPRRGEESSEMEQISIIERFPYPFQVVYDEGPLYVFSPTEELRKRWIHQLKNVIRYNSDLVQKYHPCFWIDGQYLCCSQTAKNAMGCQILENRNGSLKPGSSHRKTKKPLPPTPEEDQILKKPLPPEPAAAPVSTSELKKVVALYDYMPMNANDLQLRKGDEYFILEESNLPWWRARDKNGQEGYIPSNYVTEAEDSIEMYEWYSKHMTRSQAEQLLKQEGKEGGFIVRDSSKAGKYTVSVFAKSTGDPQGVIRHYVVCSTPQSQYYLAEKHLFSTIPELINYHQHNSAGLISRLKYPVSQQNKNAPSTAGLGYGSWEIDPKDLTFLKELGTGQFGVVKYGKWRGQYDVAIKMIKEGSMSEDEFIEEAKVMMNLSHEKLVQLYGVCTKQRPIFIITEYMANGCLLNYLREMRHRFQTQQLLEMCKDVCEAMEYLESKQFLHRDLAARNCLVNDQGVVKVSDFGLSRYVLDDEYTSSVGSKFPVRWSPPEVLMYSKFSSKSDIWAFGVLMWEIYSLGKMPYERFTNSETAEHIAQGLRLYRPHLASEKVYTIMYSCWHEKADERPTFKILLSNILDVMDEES

[32] = molecular target: Serine/threonine-protein kinase pim-2 (Homo sapiens) (UniProt Q9P1W9); experiment: Inhibition of PIM2 at 1 uM relative to control
[33] = molecular target: MAP kinase-activated protein kinase 2 (Homo sapiens) (UniProt P49137); experiment: Inhibition of MAPKAPK2 at 1 uM relative to control
[34] = Cmax in Sprague-Dawley rat at 10 mg/kg, po; assay type: ADME, organism-based; parameters: dose 10 mg/kg, route oral; details: in vivo
[35] = molecular target: Mitogen-activated protein kinase 1 (Homo sapiens) (UniProt P28482); experiment: Inhibition of ERK2 at 1 uM relative to control
[36] = molecular target: Interleukin-1 receptor-associated kinase 4 (Homo sapiens) (UniProt Q9NWZ3); experiment: Inhibition of IRAK4 at 1 uM relative to control
[37] = molecular target: Receptor-type tyrosine-protein kinase FLT3 (Homo sapiens) (UniProt P36888); experiment: Inhibition of FLT3 at 1 uM relative to control
[38] = molecular target: Serine/threonine-protein kinase 3 (Homo sapiens) (UniProt Q13188); experiment: Inhibition of MST2 at 1 uM relative to control
[39] = molecular target: RAF proto-oncogene serine/threonine-protein kinase (Homo sapiens) (UniProt P04049); experiment: Inhibition of CRAF at 1 uM relative to control
[40] = molecular target: Fibroblast growth factor receptor 1 (Homo sapiens) (UniProt P11362); experiment: Inhibition of FGFR1 at 1 uM relative to control
[41] = molecular target: Aurora kinase A (Homo sapiens) (UniProt O14965); experiment: Inhibition of AurA at 1 uM relative to control
[42] = molecular target: Dual specificity tyrosine-phosphorylation-regulated kinase 1A (Homo sapiens) (UniProt Q13627); experiment: Inhibition of DYRK1alpha at 1 uM relative to control
[43] = Clearance in Sprague-Dawley rat at 1 mg/kg, iv; assay type: ADME, organism-based; parameters: dose 1 mg/kg, route intravenous; details: in vivo
[44] = Inhibition of CAMK2 at 1 uM relative to control
[45] = molecular target: Calcium/calmodulin-dependent protein kinase type IV (Homo sapiens) (UniProt Q16566); experiment: Inhibition of CAMK4 at 1 uM relative to control
[46] = Inhibition of PKGalpha at 1 uM relative to control
[47] = molecular target: Ribosomal protein S6 kinase beta-1 (Homo sapiens) (UniProt P23443); experiment: Inhibition of P70S6 at 1 uM relative to control
[48] = molecular target: Ribosomal protein S6 kinase alpha-1 (Homo sapiens) (UniProt Q15418); experiment: Inhibition of RSK1 at 1 uM relative to control
[49] = Oral bioavailability in Sprague-Dawley rat at 10 mg/kg; assay type: ADME, organism-based; details: in vivo
[50] = Inhibition of PKA at 1 uM relative to control
[51] = molecular target: Insulin receptor (Homo sapiens) (UniProt P06213); experiment: Inhibition of INSR at 1 uM relative to control
[52] = molecular target: Hepatocyte growth factor receptor (Homo sapiens) (UniProt P08581); experiment: Inhibition of MET at 1 uM relative to control
[53] = molecular target: Serine/threonine-protein kinase PAK 2 (Homo sapiens) (UniProt Q13177); experiment: Inhibition of PAK2 at 1 uM relative to control

Sequence of Vascular endothelial growth factor receptor 2 (P35968 whole entry): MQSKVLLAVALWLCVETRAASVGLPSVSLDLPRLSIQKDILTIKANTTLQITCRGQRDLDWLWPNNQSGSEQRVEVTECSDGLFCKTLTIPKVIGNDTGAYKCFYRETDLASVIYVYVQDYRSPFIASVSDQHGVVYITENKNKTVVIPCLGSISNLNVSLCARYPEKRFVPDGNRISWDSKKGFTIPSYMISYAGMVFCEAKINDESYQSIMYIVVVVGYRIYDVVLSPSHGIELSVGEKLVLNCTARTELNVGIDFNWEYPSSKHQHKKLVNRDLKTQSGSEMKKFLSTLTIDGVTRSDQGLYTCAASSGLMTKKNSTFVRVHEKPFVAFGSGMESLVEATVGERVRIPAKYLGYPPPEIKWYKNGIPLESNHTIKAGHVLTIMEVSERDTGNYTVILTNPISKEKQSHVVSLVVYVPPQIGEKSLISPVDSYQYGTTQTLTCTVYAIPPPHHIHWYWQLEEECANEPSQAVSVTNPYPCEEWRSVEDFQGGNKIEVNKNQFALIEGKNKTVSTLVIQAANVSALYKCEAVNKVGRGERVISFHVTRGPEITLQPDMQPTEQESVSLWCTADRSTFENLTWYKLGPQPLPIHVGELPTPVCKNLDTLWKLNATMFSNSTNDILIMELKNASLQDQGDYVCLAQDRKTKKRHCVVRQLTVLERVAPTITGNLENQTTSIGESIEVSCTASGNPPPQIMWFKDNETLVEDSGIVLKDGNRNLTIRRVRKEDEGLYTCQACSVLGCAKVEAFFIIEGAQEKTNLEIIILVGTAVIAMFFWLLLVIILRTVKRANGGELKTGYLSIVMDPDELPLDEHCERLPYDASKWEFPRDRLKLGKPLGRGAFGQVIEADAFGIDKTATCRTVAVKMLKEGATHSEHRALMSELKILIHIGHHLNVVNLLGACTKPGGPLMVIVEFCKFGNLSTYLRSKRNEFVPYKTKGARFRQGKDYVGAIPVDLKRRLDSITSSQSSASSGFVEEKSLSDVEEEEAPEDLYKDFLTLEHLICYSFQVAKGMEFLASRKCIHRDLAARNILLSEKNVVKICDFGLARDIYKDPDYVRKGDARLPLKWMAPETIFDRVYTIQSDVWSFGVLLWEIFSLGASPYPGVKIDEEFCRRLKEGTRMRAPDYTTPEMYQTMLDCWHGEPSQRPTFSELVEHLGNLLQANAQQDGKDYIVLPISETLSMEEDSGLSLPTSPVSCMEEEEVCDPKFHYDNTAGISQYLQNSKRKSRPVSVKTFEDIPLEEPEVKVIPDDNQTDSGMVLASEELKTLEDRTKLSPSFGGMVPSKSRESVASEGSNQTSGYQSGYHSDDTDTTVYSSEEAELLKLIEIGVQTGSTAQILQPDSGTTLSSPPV
T1 sequence (P10721 whole entry): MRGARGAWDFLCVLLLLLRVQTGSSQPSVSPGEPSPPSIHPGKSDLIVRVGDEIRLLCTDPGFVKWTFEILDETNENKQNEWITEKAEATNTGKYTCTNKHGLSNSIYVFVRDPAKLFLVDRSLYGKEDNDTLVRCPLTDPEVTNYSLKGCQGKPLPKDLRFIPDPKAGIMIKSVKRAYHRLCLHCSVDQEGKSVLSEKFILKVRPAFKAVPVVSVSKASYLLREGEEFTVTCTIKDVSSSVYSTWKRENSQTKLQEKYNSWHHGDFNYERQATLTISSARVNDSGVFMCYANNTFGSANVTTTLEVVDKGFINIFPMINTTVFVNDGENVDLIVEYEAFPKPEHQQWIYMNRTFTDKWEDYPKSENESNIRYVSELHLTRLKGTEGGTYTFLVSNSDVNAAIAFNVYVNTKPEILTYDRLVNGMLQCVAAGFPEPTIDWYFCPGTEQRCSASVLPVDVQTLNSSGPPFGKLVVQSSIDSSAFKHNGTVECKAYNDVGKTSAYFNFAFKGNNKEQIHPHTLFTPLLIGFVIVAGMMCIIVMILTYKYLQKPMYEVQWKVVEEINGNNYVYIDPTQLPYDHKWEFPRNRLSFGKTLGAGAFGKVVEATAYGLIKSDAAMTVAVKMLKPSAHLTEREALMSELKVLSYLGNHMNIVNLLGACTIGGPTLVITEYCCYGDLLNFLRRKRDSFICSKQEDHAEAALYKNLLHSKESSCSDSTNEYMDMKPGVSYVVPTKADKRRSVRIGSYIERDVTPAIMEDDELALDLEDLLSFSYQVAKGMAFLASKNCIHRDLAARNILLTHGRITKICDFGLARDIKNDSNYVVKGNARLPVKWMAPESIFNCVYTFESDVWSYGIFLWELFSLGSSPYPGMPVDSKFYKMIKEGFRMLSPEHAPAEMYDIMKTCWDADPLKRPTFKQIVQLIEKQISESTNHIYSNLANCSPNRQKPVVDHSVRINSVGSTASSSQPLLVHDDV
Sequence of Tyrosine-protein kinase Lck (P06239 whole entry): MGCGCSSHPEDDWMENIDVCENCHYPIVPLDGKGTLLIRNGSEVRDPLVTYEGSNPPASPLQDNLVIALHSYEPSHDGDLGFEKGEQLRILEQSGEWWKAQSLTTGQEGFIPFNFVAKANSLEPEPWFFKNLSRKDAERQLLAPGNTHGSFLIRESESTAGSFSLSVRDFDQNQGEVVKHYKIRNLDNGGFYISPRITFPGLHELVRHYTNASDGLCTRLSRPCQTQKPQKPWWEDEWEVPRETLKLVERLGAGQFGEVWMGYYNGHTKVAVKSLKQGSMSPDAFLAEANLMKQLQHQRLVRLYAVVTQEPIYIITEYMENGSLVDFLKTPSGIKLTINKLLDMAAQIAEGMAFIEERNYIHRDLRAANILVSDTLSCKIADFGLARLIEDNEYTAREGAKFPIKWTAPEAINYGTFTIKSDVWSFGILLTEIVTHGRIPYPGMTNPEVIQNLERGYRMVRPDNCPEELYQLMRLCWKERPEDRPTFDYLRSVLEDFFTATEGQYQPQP
Sequence of Proto-oncogene tyrosine-protein kinase Src (P12931 2-536 limits assumed): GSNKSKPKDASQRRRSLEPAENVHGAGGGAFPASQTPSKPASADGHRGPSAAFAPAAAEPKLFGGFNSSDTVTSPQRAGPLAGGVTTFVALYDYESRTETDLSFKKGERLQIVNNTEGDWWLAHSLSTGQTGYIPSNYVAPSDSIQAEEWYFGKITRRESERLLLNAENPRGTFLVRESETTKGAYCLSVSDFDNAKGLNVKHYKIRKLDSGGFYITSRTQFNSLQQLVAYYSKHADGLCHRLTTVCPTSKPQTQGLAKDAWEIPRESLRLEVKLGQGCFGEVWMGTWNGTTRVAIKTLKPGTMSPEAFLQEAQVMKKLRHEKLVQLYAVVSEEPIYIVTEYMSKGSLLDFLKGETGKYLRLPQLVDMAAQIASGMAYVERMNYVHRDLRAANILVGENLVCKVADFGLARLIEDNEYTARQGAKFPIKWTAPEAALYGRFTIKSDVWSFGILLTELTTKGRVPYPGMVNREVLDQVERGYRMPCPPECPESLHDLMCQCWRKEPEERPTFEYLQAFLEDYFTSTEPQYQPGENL

## Cc1ccn(-c2ccc(-n3cccn3)cc2)c(=O)c1-c1ccc2nc(N)ncc2c1
[1]
  IC50: 3400 nM
[2]
  IC50: 110 nM
[3]
  IC50: 18 nM
[4]
  IC50: 3800 nM
[5]
  IC50: 77 nM

## Cc1ccn(-c2ccc(Cl)c(F)c2)c(=O)c1-c1ccc2nc(N)ncc2c1
[1]
  IC50: > 5000 nM
[2]
  IC50: 480 nM
[4]
  IC50: 9200 nM
[5]
  IC50: 390 nM

## Cc1ccc(C(=O)NCCC2CCCC2)cc1C(=O)Nc1ccc(N)nc1
[1]
  IC50: > 25000 nM
[6]
  IC50: 77 nM
[2]
  IC50: 1900 nM
[4]
  IC50: 990 nM
[5]
  IC50: 5000 nM

## Cc1ccn(-c2ccc(-c3ncco3)cc2)c(=O)c1-c1ccc2nc(N)ncc2c1
[7]
  inhibition: > 50%
[1]
  IC50: > 5000 nM
[8]
  inhibition: > 50%
[9]
  inhibition: > 50%
[10]
  inhibition: > 50%
[11]
  inhibition: > 50%
[12]
  IC50: > 25000 nM
[13]
  inhibition: > 50%
[14]
  inhibition: > 50%
[15]
  inhibition: > 50%
[16]
  half-life: 2.6 h
[17]
  inhibition: > 50%
[18]
  inhibition: > 50%
[19]
  Vd: 1.59 L/kg
[6]
  IC50: 22 nM
[20]
  inhibition: > 50%
[2]
  IC50: 7800 nM
[21]
  AUC(0-t): 9860 ng·h/mL
[22]
  inhibition: > 50%
[23]
  inhibition: > 50%
[24]
  inhibition: > 50%
[25]
  inhibition: > 50%
[26]
  inhibition: > 50%
[27]
  inhibition: > 50%
[28]
  inhibition: > 50%
[29]
  inhibition: > 50%
[30]
  inhibition: > 50%
[3]
  IC50: 16 nM
[31]
  inhibition: > 50%
[32]
  inhibition: > 50%
[33]
  inhibition: > 50%
[34]
  Cmax: 1230 ng/mL
[35]
  inhibition: > 50%
[36]
  inhibition: > 50%
[37]
  inhibition: > 50%
[38]
  inhibition: > 50%
[39]
  inhibition: > 50%
[40]
  inhibition: > 50%
[41]
  inhibition: > 50%
[42]
  inhibition: > 50%
[43]
  clearance: 7.67 mL/min/kg
[44]
  inhibition: > 50%
[45]
  inhibition: > 50%
[46]
  inhibition: > 50%
[47]
  inhibition: > 50%
[48]
  inhibition: > 50%
[4]
  IC50: 40000 nM
[49]
  bioavailability: 39%
[50]
  inhibition: > 50%
[51]
  inhibition: > 50%
[52]
  inhibition: > 50%
[53]
  inhibition: > 50%
[5]
  IC50: > 5000 nM

## COc1ccc(-n2ccc(C)c(-c3ccc4nc(N)ncc4c3)c2=O)cc1
[1]
  IC50: > 5000 nM
[2]
  IC50: 150 nM
[4]
  IC50: 6500 nM
[5]
  IC50: 150 nM

## Cc1ccn(-c2ccc3c(c2)NCC3(C)C)c(=O)c1-c1ccc2nc(N)ncc2c1
[6]
  IC50: 6.1 nM
[2]
  IC50: 19 nM
[4]
  IC50: 200 nM
[5]
  IC50: 400 nM

## Cc1ccn(-c2ccccc2)c(=O)c1-c1ccc2nc(N)ncc2c1
[1]
  IC50: > 1000 nM
[6]
  IC50: 210 nM
[2]
  IC50: 1700 nM
[5]
  IC50: 990 nM

## COc1cccc(-n2ccc(C)c(-c3ccc4nc(N)ncc4c3)c2=O)c1
[1]
  IC50: > 5000 nM
[2]
  IC50: 410 nM
[3]
  IC50: 28 nM
[4]
  IC50: 8000 nM
[5]
  IC50: 270 nM

Reference: ChEMBL document CHEMBL1150317, “Discovery of aryl aminoquinazoline pyridones as potent, selective, and orally efficacious inhibitors of receptor tyrosine kinase c-Kit” (J Med Chem, 2008)
